According to patent US6107549A, “Genetically engineered plant resistance to thiazopyr and other pyridine herbicides” (Monsanto Company, priority 1999, dated 2000):

What was measured:
tomato seedlings = settings: in vivo
Description: Esterase activity was also monitored in plants. [^14 C]Thiazopyr or [^14 C]MON 14300 (1-4 μg in acetonitrile) was applied directly to shoots and cotyledons of young seedlings. After 2 days in a growth chamber, tobacco or tomato seedlings were washed with methanol and water, then homogenized (TISSUMIZER™, Tekmar-Dohrmann, Cincinnatti, Ohio) in 5% (v/v) trifluoroacetic acid in acetonitrile (fresh w/v ratio of 2/1). Homogenates were clarified by centrifugation (12,000× g) and supernatants analyzed by HPLC/RAD for the formation of the monoacid metabolite.
MON 14300 was applied to the shoot of 2-day old seedlings. Two days after treatment, seedlings were washed with methanol and tissue extracts analyzed by HPLC. The HPLC chromatograms show signals from both the UV254 nm (upper trace, FIG. 5) and radioactivity (lower trace, FIG. 5) detectors. For the purpose of metabolite identification, plant extracts were co-injected with a mixture of authentic standards visible under UV detection. […] In both transgenic lines, small levels of more polar products, presumably from further degradation of the monoacid as reported by McClanahan et al. (1995), were detected near the solvent front.

tomato [1] = assay: Growth chamber assay, pre-emergence application; assay type: in vivo; settings: PE
Description: Growth chamber and greenhouse assay for resistance. Pyridine herbicide resistance in transgenic tomato expressing RLE3 was examined in soil with pre-emergence (PE) applications of thiazopyr. Tomato seeds (R1 of #8255 and #8256, and control UC82B) were planted in 100 cm^2 pots (12 seeds per pot) in artificial METROMIX™ soil at a depth of 0.5 cm. Pots were watered and oversprayed with a 50% acetone/water solution (2 ml) containing thiazopyr at use rates of 0, 34, 67, 140, and 280 g/ha (grams per hectare). Pots were placed in a growth chamber (12 hr photoperiod; 60% humidity, 25° C. night/29° C. day; 600 μE light) with daily watering by subirrigation.

tomato [2] = assay: Field test for tomato resistance; assay type: in vivo
Description: Field test for tomato resistance. A single field test was conducted in early summer at a Monsanto Company research farm in Jerseyville, Ill. A total of 9 transgenic lines were selected for the field study. […] The remaining 6 lines were R1 seeds selected based on high expression level and seed availability. About 400 seeds were pooled from each line based on uniformity of size and appearance, and randomly separated into 4 groups of about 100 seeds. Four parallel plots (5×20 m) were respectively sprayed with 0, 112, 336, and 673 g/ha of thiazopyr, which was then incorporated down to 7.5 cm of soil depth. The projected field use-rate for thiazopyr is about 280 g/ha. Seeds were placed in a furrow at every 5 cm distance and covered with soil. UC82B seeds were used as untransformed controls. After sowing, 13 mm of water was irrigated over the plots. […] Nevertheless, it was possible to measure thiazopyr resistance based on seedling emergence between control UC82B and the transgenic lines. […] However at 336 g/ha, #8255-30 maintained germination at 10% while UC82B declined to about 1%. […] The transgenic lines flowered, set fruit, and yielded abundant tomatoes and seeds.

| Compound | metabolism in plants (tomato seedlings) | monoacid in residue (tomato seedlings; tomato, 48 h) [%] | parent as primary residue (tomato seedlings; tomato, 48 h) [%] | difference in vegetative growth between UC82B and #8256 (tomato [1]; 34 g/ha) | stunting (tomato [1]; UC82B control, 67 g/ha) | growth and survival (tomato [1]; UC82B control, 140 g/ha) | stunting (tomato [1]; transgenic #8256, 67 g/ha) | growth and survival (tomato [1]; transgenic #8256, 140 g/ha) | resistant seedlings out of 12 to 16 seeds (tomato [1]; transgenic R1, 140 and 280 g/ha) | effect on flower development, fruit set, and seed production (tomato [1]; transgenic plants, 140 and 280 g/ha) | germination (tomato [2]; UC82B and #8255-30, 112 g/ha, 21 days after planting) | germination (tomato [2]; UC82B control, 336 g/ha) | germination (tomato [2]; UC82B control, 673 g/ha) | survival at later time points (tomato [2]; UC82B plants that germinated at 112 and 336 g/ha) | germination (tomato [2]; transgenic #8255-30, 336 g/ha) [%] | germination (tomato [2]; transgenic #8255-30, 673 g/ha) [%] | growth at later time points (tomato [2]; transgenic lines showing thiazopyr injury) |
| --- | --- | --- | --- | --- | --- | --- | --- | --- | --- | --- | --- | --- | --- | --- | --- | --- | --- |
| COC(=O)c1c(C(F)F)nc(C(F)(F)F)c(C(=O)n2cccn2)c1CC(C)C [MON 14300] | little to no metabolism in plants | 2.5 | 90.8 | – | – | – | – | – | – | – | – | – | – | – | – | – | – |
| COC(=O)c1c(C(F)F)nc(C(F)(F)F)c(C2=NCCS2)c1CC(C)C [thiazopyr] | – | – | – | no detectable difference in vegetative growth | about 20% | never grew beyond the cotyledon stage and eventually all died | none | numerous healthy seedlings that were stunted but otherwise normal | approximately 4 | no effect | slightly lower but still comparable germination | about 1% | no germination at all | had died due to weakening of the stem at the soil line | 10 | 4 | growth was not affected |
